Measured values reported in PubChem BioAssay (NCI).
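Test compounds were applied to cells in 96-well plates for 48 hours at 5 doses. At the TGI there is no net growth.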

Experiments:
Assay in all cases: DTP human tumour cell line panel, 48 h
[1] = tested on: EKVX NSCLC
[2] = tested on: K-562 leukemia
[3] = tested on: OVCAR-8 ovarian
[4] = tested on: OVCAR-3 ovarian
[5] = tested on: MDA-MB-231 breast
[6] = tested on: NCI-H226 lung
[7] = tested on: SF-268 CNS
[8] = tested on: HCC-2998 colon
[9] = tested on: HS 578T breast
[10] = tested on: HOP-92 NSCLC
[11] = tested on: U251 CNS
[12] = tested on: BT-549 breast
[13] = tested on: MOLT-4 leukemia
[14] = tested on: SK-MEL-5 melanoma
[15] = tested on: KM12 colon
[16] = tested on: T-47D breast
[17] = tested on: SK-MEL-28 melanoma
[18] = tested on: HCT-15 colon
[19] = tested on: OVCAR-5 ovarian
[20] = tested on: RPMI-8226 leukemia
[21] = tested on: DU-145 prostate
[22] = tested on: MALME-3M melanoma
[23] = tested on: NCI-H522 lung
[24] = tested on: A549 NSCLC
[25] = tested on: COLO 205 colon
[26] = tested on: M14 melanoma
[27] = tested on: SF-295 CNS
[28] = tested on: UACC-257 melanoma
[29] = tested on: MCF7 breast
[30] = tested on: OVCAR-4 ovarian
[31] = tested on: ACHN renal
[32] = tested on: NCI-H460 lung
[33] = tested on: IGROV1 ovarian
[34] = tested on: HOP-62 NSCLC
[35] = tested on: 786-0 renal
[36] = tested on: UO-31 renal
[37] = tested on: SN12C renal
[38] = tested on: LOX IMVI melanoma
[39] = tested on: MDA-MB-435
[40] = tested on: SR leukemia
[41] = tested on: MDA-N
[42] = tested on: SNB-75 CNS
[43] = tested on: TK-10 renal
[44] = tested on: NCI-H23 lung
[45] = tested on: SK-MEL-2 melanoma
[46] = tested on: HT29 colon
[47] = tested on: SNB-19 CNS
[48] = tested on: SK-OV-3 ovarian
[49] = tested on: PC-3 prostate
[50] = tested on: NCI/ADR-RES ovarian
[51] = tested on: CAKI-1 renal
[52] = tested on: A498 renal
[53] = tested on: SW-620 colon
[54] = tested on: SF-539 CNS
[55] = tested on: HL-60(TB) leukemia
[56] = tested on: UACC-62 melanoma
[57] = tested on: CCRF-CEM leukemia
[58] = tested on: HCT-116 colon
[59] = tested on: RXF 393 renal

COc1ccc(N2C(=O)C3c4[nH]c5c(C)cccc5c4C4CCC(C(C)C)CC4C3C2=O)cc1 (stereo not drawn)
TGI [1]: 40.6 µM
TGI [2]: 5.86 µM
TGI [3]: 42.9 µM
TGI [4]: 28.4 µM
TGI [5]: 34.8 µM
TGI [6]: 36.1 µM
TGI [7]: 22 µM
TGI [8]: 28.8 µM
TGI [9]: 27.7 µM
TGI [10]: 34.4 µM
TGI [11]: 29.9 µM
TGI [12]: 56 µM
TGI [13]: 11.2 µM
TGI [14]: > 100 µM
TGI [15]: 19.9 µM
TGI [16]: 48.6 µM
TGI [17]: 31.5 µM
TGI [18]: 40.6 µM
TGI [19]: 29.7 µM
TGI [20]: > 100 µM
TGI [21]: 31.2 µM
TGI [22]: 36.8 µM
TGI [23]: 27.2 µM
TGI [24]: > 100 µM
TGI [25]: > 100 µM
TGI [26]: 26.8 µM
TGI [27]: 38.3 µM
TGI [28]: > 100 µM
TGI [29]: 31.4 µM
TGI [30]: 42.3 µM
TGI [31]: 47.2 µM
TGI [32]: 39.7 µM
TGI [33]: 23.5 µM
TGI [34]: 22.7 µM
TGI [35]: 19.5 µM
TGI [36]: 31.4 µM
TGI [37]: 98 µM
TGI [38]: 19.3 µM
TGI [39]: 23.3 µM
TGI [40]: 32.5 µM
TGI [41]: 29.2 µM
TGI [42]: 9.4 µM
TGI [43]: 76.8 µM
TGI [44]: 40.7 µM
TGI [45]: 35.3 µM
TGI [46]: 13.8 µM
TGI [47]: > 100 µM
TGI [48]: 47.7 µM
TGI [49]: 25.2 µM
TGI [50]: 51.1 µM
TGI [51]: 37.6 µM
TGI [52]: 32.8 µM
TGI [53]: 45.7 µM

CCN(CC)C(=S)SC(C(=O)Nc1nnc(-c2ccc(Cl)cc2)o1)c1ccccc1 (stereo not drawn)
TGI [1]: 29.4 µM
TGI [2]: 42.4 µM
TGI [3]: > 100 µM
TGI [4]: 10.2 µM
TGI [54]: 30.5 µM
TGI [5]: 77.7 µM
TGI [7]: 67 µM
TGI [8]: 16.9 µM
TGI [9]: > 100 µM
TGI [10]: 51.5 µM
TGI [55]: > 100 µM
TGI [11]: 65.3 µM
TGI [12]: 66.7 µM
TGI [13]: > 100 µM
TGI [56]: 23.6 µM
TGI [14]: 19.4 µM
TGI [15]: 58.2 µM
TGI [16]: 59.7 µM
TGI [17]: 33.5 µM
TGI [18]: 18.9 µM
TGI [19]: 26.6 µM
TGI [20]: 22 µM
TGI [21]: 94 µM
TGI [22]: 32.7 µM
TGI [23]: 26.6 µM
TGI [24]: 52.1 µM
TGI [25]: 14.5 µM
TGI [57]: 9.82 µM
TGI [26]: 27.6 µM
TGI [27]: 48.2 µM
TGI [28]: > 100 µM
TGI [29]: > 100 µM
TGI [30]: 18.6 µM
TGI [31]: 26.3 µM
TGI [32]: 84.1 µM
TGI [33]: 8.33 µM
TGI [58]: 13.5 µM
TGI [59]: 48.8 µM
TGI [34]: 43.1 µM
TGI [35]: 39 µM
TGI [36]: 52.1 µM
TGI [37]: 38.2 µM
TGI [38]: 40.2 µM
TGI [39]: 36 µM
TGI [40]: 38.3 µM
TGI [41]: 50.3 µM
TGI [43]: 62.3 µM
TGI [44]: > 100 µM
TGI [45]: > 100 µM
TGI [46]: 16.9 µM
TGI [47]: > 100 µM
TGI [48]: 31.4 µM
TGI [49]: 28.3 µM
TGI [50]: 30.5 µM
TGI [51]: 51.8 µM
TGI [52]: 41.4 µM
TGI [53]: 35.9 µM

Cc1n[nH]c2ccccc2c1=O
TGI [1]: > 100 µM
TGI [2]: > 100 µM
TGI [3]: > 100 µM
TGI [4]: > 100 µM
TGI [54]: > 100 µM
TGI [5]: > 100 µM
TGI [6]: > 100 µM
TGI [7]: > 100 µM
TGI [9]: > 100 µM
TGI [10]: > 100 µM
TGI [11]: > 100 µM
TGI [12]: > 100 µM
TGI [13]: > 100 µM
TGI [56]: > 100 µM
TGI [14]: > 100 µM
TGI [15]: > 100 µM
TGI [16]: > 100 µM
TGI [17]: > 100 µM
TGI [18]: > 100 µM
TGI [19]: > 100 µM
TGI [20]: > 100 µM
TGI [21]: > 100 µM
TGI [22]: > 100 µM
TGI [23]: > 100 µM
TGI [24]: > 100 µM
TGI [25]: > 100 µM
TGI [26]: > 100 µM
TGI [27]: > 100 µM
TGI [28]: > 100 µM
TGI [29]: > 100 µM
TGI [30]: > 100 µM
TGI [31]: > 100 µM
TGI [32]: > 100 µM
TGI [33]: > 100 µM
TGI [58]: > 100 µM
TGI [59]: > 100 µM
TGI [34]: > 100 µM
TGI [35]: > 100 µM
TGI [36]: > 100 µM
TGI [37]: > 100 µM
TGI [38]: > 100 µM
TGI [39]: > 100 µM
TGI [40]: > 100 µM
TGI [41]: > 100 µM
TGI [42]: > 100 µM
TGI [43]: > 100 µM
TGI [44]: > 100 µM
TGI [45]: > 100 µM
TGI [46]: > 100 µM
TGI [47]: > 100 µM
TGI [48]: > 100 µM
TGI [49]: > 100 µM
TGI [50]: > 100 µM
TGI [51]: > 100 µM
TGI [52]: > 100 µM
TGI [53]: > 100 µM

O=C1[C@@H]2[C@@H](CN3CN(c4ccccc4)N=C(c4ccccc4)[C@@]23c2ccccc2)C(=O)N1c1ccccc1
TGI [1]: 11 µM
TGI [2]: > 25.4 µM
TGI [3]: 13.9 µM
TGI [4]: 21.2 µM
TGI [5]: 16.6 µM
TGI [6]: 8.87 µM
TGI [7]: 47.1 µM
TGI [8]: > 100 µM
TGI [9]: > 65.8 µM
TGI [10]: 3.86 µM
TGI [55]: 6.33 µM
TGI [11]: > 65.6 µM
TGI [12]: 13.2 µM
TGI [13]: > 100 µM
TGI [56]: 20.1 µM
TGI [14]: 32.6 µM
TGI [15]: > 75.5 µM
TGI [16]: 8.04 µM
TGI [17]: 26 µM
TGI [18]: 5.25 µM
TGI [19]: 10.4 µM
TGI [20]: 12.4 µM
TGI [21]: 24.7 µM
TGI [22]: 3.57 µM
TGI [23]: 1.13 µM
TGI [24]: 19.7 µM
TGI [25]: 3.83 µM
TGI [26]: 9.73 µM
TGI [27]: 30.2 µM
TGI [28]: 29.1 µM
TGI [29]: 4.04 µM
TGI [30]: > 23.8 µM
TGI [31]: 3.69 µM
TGI [32]: 50.4 µM
TGI [33]: 29.5 µM
TGI [58]: 31.8 µM
TGI [59]: 9.65 µM
TGI [34]: 30 µM
TGI [35]: 5.56 µM
TGI [36]: 3.29 µM
TGI [37]: 18.4 µM
TGI [38]: 3.3 µM
TGI [39]: 23.2 µM
TGI [40]: > 100 µM
TGI [41]: 20.1 µM
TGI [42]: 34.9 µM
TGI [43]: 3.13 µM
TGI [44]: 23.6 µM
TGI [45]: 40.3 µM
TGI [46]: 6.22 µM
TGI [47]: 36.8 µM
TGI [48]: 27.7 µM
TGI [49]: 27.1 µM
TGI [50]: 49.2 µM
TGI [51]: 2.45 µM
TGI [52]: 36.6 µM
TGI [53]: 3.84 µM
